Patent publication US12577206B2 (BRISTOL-MYERS SQUIBB COMPANY, priority 2020, dated 2026)

Assays:
[1] = molecular target: T1, human FPR2 (Homo sapiens, UniProt P25090); test: FPR2 cyclic adenosine monophosphate (cAMP) assay; type: cell-based; details: CHO cells overexpressing human FPR2; forskolin 5 μM; inhibition of cAMP production; HTRF; read-out: hFPR2 cAMP2 EC50
T1 sequence (P25090 1-351): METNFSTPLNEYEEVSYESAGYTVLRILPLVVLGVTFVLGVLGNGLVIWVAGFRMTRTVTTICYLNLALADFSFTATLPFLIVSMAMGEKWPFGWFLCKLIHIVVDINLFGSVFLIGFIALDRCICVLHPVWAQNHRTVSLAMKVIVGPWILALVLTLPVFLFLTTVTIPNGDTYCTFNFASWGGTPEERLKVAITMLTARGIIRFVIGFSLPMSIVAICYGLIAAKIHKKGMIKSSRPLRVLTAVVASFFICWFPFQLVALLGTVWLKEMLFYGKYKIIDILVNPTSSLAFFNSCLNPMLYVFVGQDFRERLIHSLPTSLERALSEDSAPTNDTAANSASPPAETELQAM
Outline: (§1)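 Gi-coupled activity is read as suppression of forskolin-stimulated cAMP (10 μM final for FPR1, 5 μM final for FPR2; IBMX 200 μM final) in recombinant CHO cells, 30 min incubation at rt, HTRF detection.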

[2] = molecular target: T2, human FPR1 (Homo sapiens, UniProt P21462); test: FPR1 cyclic adenosine monophosphate (cAMP) assay; type: cell-based; details: CHO cells overexpressing human FPR1; forskolin 10 μM; inhibition of cAMP production; HTRF; read-out: hFPR1 cAMP2 EC50
T2 sequence (P21462 1-350): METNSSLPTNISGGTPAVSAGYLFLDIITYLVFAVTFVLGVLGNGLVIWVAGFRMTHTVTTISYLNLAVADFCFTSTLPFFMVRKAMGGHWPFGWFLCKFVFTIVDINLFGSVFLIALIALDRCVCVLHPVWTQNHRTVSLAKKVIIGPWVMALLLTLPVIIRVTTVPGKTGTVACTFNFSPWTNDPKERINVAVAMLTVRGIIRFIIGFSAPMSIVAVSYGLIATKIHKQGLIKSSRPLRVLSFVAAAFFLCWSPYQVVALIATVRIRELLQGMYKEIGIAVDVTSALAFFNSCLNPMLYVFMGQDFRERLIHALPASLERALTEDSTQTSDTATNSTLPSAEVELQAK
Outline: as §1

| SMILES | EC50 [1] [nM] | EC50 [2] [nM] |
| --- | --- | --- |
| COc1cc(F)c(-c2c(NC(=O)c3ccc(OC(F)(F)F)cc3)c(=O)n(-c3ncccc3C#N)n2C)c(F)c1 [Example 56, N-[2-(3-cyanopyridin-2-yl)-5-(2,6-difluoro-4-methoxyphenyl)-1-methyl-3-oxo-2,3-dihydro-1H-pyrazol-4-yl]-4-(trifluoromethoxy)benzamide] | 7 | > 10000 |
| COc1cc(F)c(-c2c(NC(=O)c3ccc(OC(F)F)cc3)c(=O)n(Cc3nnc(C(C)C)o3)n2C)c(F)c1 [Example 57, N-[5-(2,6-difluoro-4-methoxyphenyl)-1-methyl-3-oxo-2-{[5-(propan-2-yl)-1,3,4-oxadiazol-2-yl]methyl}-2,3-dihydro-1H-pyrazol-4-yl]-4-(difluoromethoxy)benzamide] | 150 | 380 |
| COc1cc(F)c(-c2c(NC(=O)c3ccc(OC(F)F)cc3)c(=O)n(CCO)n2C)c(F)c1 [Example 58, N-[5-(2,6-difluoro-4-methoxyphenyl)-2-(2-hydroxyethyl)-1-methyl-3-oxo-2,3-dihydro-1H-pyrazol-4-yl]-4-(difluoromethoxy)benzamide] | 230 | > 10000 |
| COc1ccnc(-n2c(=O)c(NC(=O)c3ccc(OC(F)F)cc3)c(-c3c(F)cc(OC)cc3F)n2C)c1 [Example 59, N-[5-(2,6-difluoro-4-methoxyphenyl)-2-(4-methoxypyridin-2-yl)-1-methyl-3-oxo-2,3-dihydro-1H-pyrazol-4-yl]-4-(difluoromethoxy)benzamide] | 8 | > 10000 |
| COc1cc(F)c(-c2c(NC(=O)c3ccc(OC(F)F)cc3)c(=O)n(-c3ccc4ccccc4n3)n2C)c(F)c1 [Example 60, N-[5-(2,6-difluoro-4-methoxyphenyl)-1-methyl-3-oxo-2-(quinolin-2-yl)-2,3-dihydro-1H-pyrazol-4-yl]-4-(difluoromethoxy)benzamide] | 3 | 210 |
| COc1cc(F)c(-c2c(NC(=O)c3ccc(OC(F)F)cc3)c(=O)n(-c3cncc(C)n3)n2C)c(F)c1 [Example 61, N-[5-(2,6-difluoro-4-methoxyphenyl)-1-methyl-2-(6-methylpyrazin-2-yl)-3-oxo-2,3-dihydro-1H-pyrazol-4-yl]-4-(difluoromethoxy)benzamide] | 11 | 1600 |
| COc1cc(F)c(-c2c(NC(=O)c3ccc(OC(F)F)cc3)c(=O)n(-c3cc(C(F)(F)F)ccn3)n2C)c(F)c1 [Example 62, N-[5-(2,6-difluoro-4-methoxyphenyl)-1-methyl-3-oxo-2-[4-(trifluoromethyl)pyridin-2-yl]-2,3-dihydro-1H-pyrazol-4-yl]-4-(difluoromethoxy)benzamide] | 6 | > 10000 |
| COc1cc(F)c(-c2c(NC(=O)c3ccc(OC(F)(F)F)cc3)c(=O)n(-c3cc(C(F)(F)F)ccn3)n2C)c(F)c1 [Example 63, N-[5-(2,6-difluoro-4-methoxyphenyl)-1-methyl-3-oxo-2-[4-(trifluoromethyl)pyridin-2-yl]-2,3-dihydro-1H-pyrazol-4-yl]-4-(trifluoromethoxy)benzamide] | 7 | > 10000 |
| COc1cc(F)c(-c2c(NC(=O)c3ccc(OC(F)F)cc3)c(=O)n(-c3cnc4ccccc4n3)n2C)c(F)c1 [Example 64, N-[5-(2,6-difluoro-4-methoxyphenyl)-1-methyl-3-oxo-2-(quinoxalin-2-yl)-2,3-dihydro-1H-pyrazol-4-yl]-4-(difluoromethoxy)benzamide] | 11 | 800 |
| COc1cc(F)c(-c2c(NC(=O)c3ccc(OC(F)F)cc3)c(=O)n(-c3cc(C)cc(C)n3)n2C)c(F)c1 [Example 65, N-[5-(2,6-difluoro-4-methoxyphenyl)-2-(4,6-dimethylpyridin-2-yl)-1-methyl-3-oxo-2,3-dihydro-1H-pyrazol-4-yl]-4-(difluoromethoxy)benzamide] | 8 | > 10000 |
| COc1cc(F)c(-c2c(NC(=O)c3ccc(OC(F)(F)F)cc3)c(=O)n(-c3cc(C)cc(C)n3)n2C)c(F)c1 [Example 66, N-[5-(2,6-difluoro-4-methoxyphenyl)-2-(4,6-dimethylpyridin-2-yl)-1-methyl-3-oxo-2,3-dihydro-1H-pyrazol-4-yl]-4-(trifluoromethoxy)benzamide] | 8 | 2500 |
| COc1cc(F)c(-c2c(NC(=O)c3ccc(OC(F)F)cc3)c(=O)n(-c3cccc(C(F)F)n3)n2C)c(F)c1 [Example 67, N-[5-(2,6-difluoro-4-methoxyphenyl)-2-[6-(difluoromethyl)pyridin-2-yl]-1-methyl-3-oxo-2,3-dihydro-1H-pyrazol-4-yl]-4-(difluoromethoxy)benzamide] | 9 | 3400 |
| COc1cc(F)c(-c2c(NC(=O)c3ccc(OC(F)(F)F)cc3)c(=O)n(-c3cccc(C(F)F)n3)n2C)c(F)c1 [Example 68, N-[5-(2,6-difluoro-4-methoxyphenyl)-2-[6-(difluoromethyl)pyridin-2-yl]-1-methyl-3-oxo-2,3-dihydro-1H-pyrazol-4-yl]-4-(trifluoromethoxy)benzamide] | 8 | 1000 |
| COc1cc(F)c(-c2c(NC(=O)c3ccc(OC(F)F)cc3)c(=O)n(-c3cccc(-n4ccc(C)n4)n3)n2C)c(F)c1 [Example 69, N-[5-(2,6-difluoro-4-methoxyphenyl)-1-methyl-2-[6-(3-methyl-1H-pyrazol-1-yl)pyridin-2-yl]-3-oxo-2,3-dihydro-1H-pyrazol-4-yl]-4-(difluoromethoxy)benzamide] | 5 | 5 |
| COc1cc(F)c(-c2c(NC(=O)c3ccc(OC(F)(F)F)cc3)c(=O)n(-c3cccc(-n4ccc(C)n4)n3)n2C)c(F)c1 [Example 70, N-[5-(2,6-difluoro-4-methoxyphenyl)-1-methyl-2-[6-(3-methyl-1H-pyrazol-1-yl)pyridin-2-yl]-3-oxo-2,3-dihydro-1H-pyrazol-4-yl]-4-(trifluoromethoxy)benzamide] | 3 | 5 |
| COc1cc(F)c(-c2c(NC(=O)c3ccc(OC(F)F)cc3)c(=O)n(-c3cncc(OC)n3)n2C)c(F)c1 [Example 71, N-[5-(2,6-difluoro-4-methoxyphenyl)-2-(6-methoxypyrazin-2-yl)-1-methyl-3-oxo-2,3-dihydro-1H-pyrazol-4-yl]-4-(difluoromethoxy)benzamide] | 20 | 2600 |
| COc1cc(F)c(-c2c(NC(=O)c3ccc(OC(F)F)cc3)c(=O)n(-c3cccc(-c4ccccc4)n3)n2C)c(F)c1 [Example 72, N-[5-(2,6-difluoro-4-methoxyphenyl)-1-methyl-3-oxo-2-(6-phenylpyridin-2-yl)-2,3-dihydro-1H-pyrazol-4-yl]-4-(difluoromethoxy)benzamide] | 2.7 | 180 |
| COc1cc(F)c(-c2c(NC(=O)c3ccc(OC(F)(F)F)cc3)c(=O)n(-c3cccc(-c4ccccc4)n3)n2C)c(F)c1 [Example 73, N-[5-(2,6-difluoro-4-methoxyphenyl)-1-methyl-3-oxo-2-(6-phenylpyridin-2-yl)-2,3-dihydro-1H-pyrazol-4-yl]-4-(trifluoromethoxy)benzamide] | 13 | 950 |
| COc1cc(F)c(-c2c(NC(=O)c3ccc(OC(F)(F)F)cc3)c(=O)n(-c3cccc(OC)n3)n2C)c(F)c1 [Example 74, N-[5-(2,6-difluoro-4-methoxyphenyl)-2-(6-methoxypyridin-2-yl)-1-methyl-3-oxo-2,3-dihydro-1H-pyrazol-4-yl]-4-(trifluoromethoxy)benzamide] | 6 | 820 |
| COc1cc(F)c(-c2c(NC(=O)c3ccc(OC(F)F)cc3)c(=O)n(-c3cccc(OC)n3)n2C)c(F)c1 [Example 75, N-[5-(2,6-difluoro-4-methoxyphenyl)-2-(6-methoxypyridin-2-yl)-1-methyl-3-oxo-2,3-dihydro-1H-pyrazol-4-yl]-4-(difluoromethoxy)benzamide] | 7 | 2300 |
| COc1cc(F)c(-c2c(NC(=O)c3ccc(OC(F)F)cc3)c(=O)n(-c3cc(OC)c(C)cn3)n2C)c(F)c1 [Example 77, N-[5-(2,6-difluoro-4-methoxyphenyl)-2-(4-methoxy-5-methylpyridin-2-yl)-1-methyl-3-oxo-2,3-dihydro-1H-pyrazol-4-yl]-4-(difluoromethoxy)benzamide] | 17 | 620 |
| CCOc1ccnc(-n2c(=O)c(NC(=O)c3ccc(OC(F)F)cc3)c(-c3c(F)cc(OC)cc3F)n2C)c1 [Example 78, N-[5-(2,6-difluoro-4-methoxyphenyl)-2-(4-ethoxypyridin-2-yl)-1-methyl-3-oxo-2,3-dihydro-1H-pyrazol-4-yl]-4-(difluoromethoxy)benzamide] | 10 | 9500 |
